In the NIST ThermoML archive (doi:10.1021/je7004837):
Numbers after ± are expanded uncertainties.

Settings: Liquid, Ebulliometric method (Recirculating still)

vapor or sublimation pressure (273.15 K) [kPa] | vapor or sublimation pressure (283.15 K) [kPa] | vapor or sublimation pressure (293.15 K) [kPa] | vapor or sublimation pressure (303.15 K) [kPa] | vapor or sublimation pressure (313.15 K) [kPa] | vapor or sublimation pressure (323.15 K) [kPa] | Compound
194 ± 2 | 280 ± 2 | 389 ± 3 | 527 ± 3 | 704 ± 3 | 920 ± 4 | FC(C(F)(F)F)C(F)(F)F [1,1,1,2,3,3,3-heptafluoropropane]
104 ± 2 | 150 ± 2 | 208 ± 2 | 284 ± 2 | 378 ± 2 | 494 ± 3 | CCCC [butane]
